Laboratory results from patent publication US6080396A, “Anthracycline compound derivative and pharmaceutical preparation containing the same” (Japan Science and Technology Corporation, priority 1995, dated 2000).
Where a name gives a salt, the structure may show the parent alone.

Tests used:
[1] = system: mouse Colon 26 adenocarcinoma; assay: Antitumor activity on mouse Colon 26 adenocarcinoma (Application Example 1); type: in vivo; details: for Tumor-disappeared mice: i.v., every 4th day, three times
Procedure: (§1) When the volume of the tumor reached around 100 mm^3, the block copolymer-drug complex pharmaceutical preparation synthesized in Example 3, 4 or 5 or adriamycin hydrochloride was intravenously administered once a day every 4th day in total of three times (indicated by arrows in the drawings) to examine their antitumor effects. […] Each dose was determined as the amount of adriamycin of the peak 1 of the HPLC chromatogram. The antitumor effects of each drug were estimated based on the tumor growth curve, the number of mice in which the tumor disappeared and the chemotherapeutic index. The results are shown in Tables 1 and 2 and FIGS. 16 and 17.

[2] = Drug concentration in heart by radioactivity (Application Example 2); type: in vivo, CDF1 female mouse; details: mouse, iv, i.v., total of adriamycin and adriamycin dimer, 14C, read-out: % of dose/g (heart)
[3] = Drug concentration in tumor by radioactivity (Application Example 2); type: in vivo, CDF1 female mouse; details: mouse, iv, i.v., total of adriamycin and adriamycin dimer, 14C, read-out: % of dose/g (tumor)
[4] = LD50 for comparison of chemotherapeutic index (Table 2); details: mouse, in vivo, iv
Procedure: as §1

[5] = system: mouse Colon 26 adenocarcinoma; assay: Antitumor activity on mouse Colon 26 adenocarcinoma (Application Example 3); type: in vivo; details: i.v., every 4th day, three times
Procedure: In the case of the pharmaceutical preparation of Example 8, its effect obtained from the only first administration was also examined. […] Each dose was determined as the amount of adriamycin of the peak 1 of the HPLC chromatogram. The antitumor effects of each drug were estimated based on the tumor growth curve and the number of mice in which the tumor disappeared. The results are shown in Table 6 and FIGS. 25, 26 and 27.

[6] = Drug concentration in blood plasma by radioactivity (Application Example 2); details: for % of dose/ml (blood plasma): i.v., total of adriamycin and adriamycin dimer, 14C
Procedure: Colon 26 adenocarcinoma cells were transplanted subcutaneously in the subaxillary region of each CDF1 female mouse, to which the block copolymer-drug complex pharmaceutical preparation prepared in Example 6 or 7 or ^14 C-labeled adriamycin hydrochloride was intravenously administered 12 days after transplanting. Each drug was used by diluting it in physiological saline prior to its use. After 15 minutes and 1, 4, 24 and 48 hours of the administration, blood samples were collected and various organs were excised. The drug concentrations in the blood plasma and each internal organ were determined by measuring radioactivity thereof using a liquid scintillation counter. In this test, both adriamycin and adriamycin dimer are labeled with ^14 C.

COc1cccc2c1C(=O)c1c(O)c3c(c(O)c1C2=O)C[C@@](O)(C(=O)CO)C[C@@H]3O[C@H]1C[C@H](N)[C@H](O)[C@H](C)O1 [Adriamycin hydrochloride, adriamycin hydrochloride]
Tumor-disappeared mice ([1]; 5 mg/kg): 0/5
Tumor-disappeared mice ([1]; 10 mg/kg): 2/5
Min T/C42 (minimum dose when T/C (%) becomes 42% or less on the 14th day after the initial administration) ([1]; 14th day after initial administration): 5.95
C. index (chemotherapeutic index: LD50/(Min T/C42)) ([1]; LD50 /(Min T/C42)): 2.52
tissue uptake at 0.25 h ([2]; 15 minutes): 10.5 %ID/g
tissue uptake at 1 h ([2]; 1 hour): 7 %ID/g
tissue uptake at 4 h ([2]; 4 hours): 4.6 %ID/g
tissue uptake at 24 h ([2]; 24 hours): 1.1 %ID/g
tissue uptake at 48 h ([2]; 48 hours): 0.5 %ID/g
tissue uptake at 0.25 h ([3]; 15 minutes): 2.3 %ID/g
tissue uptake at 1 h ([3]; 1 hour): 2.4 %ID/g
tissue uptake at 4 h ([3]; 4 hours): 1.7 %ID/g
tissue uptake at 24 h ([3]; 24 hours): 1.3 %ID/g
tissue uptake at 48 h ([3]; 48 hours): 1 %ID/g
LD50 [4]: 15 mg/kg
Tumor-disappeared mice ([5]; 5 mg/kg): 0/5
Tumor-disappeared mice ([5]; 10 mg/kg): 2/5
% of dose/ml (blood plasma) ([6]; 15 minutes): 0.47 % of dose/ml
% of dose/ml (blood plasma) ([6]; 1 hour): 0.29 % of dose/ml
% of dose/ml (blood plasma) ([6]; 4 hours): 0.36 % of dose/ml
% of dose/ml (blood plasma) ([6]; 24 hours): 0.10 % of dose/ml
% of dose/ml (blood plasma) ([6]; 48 hours): 0.07 % of dose/ml
drug retention in blood plasma ([6]; mouse, in vivo): quickly disappeared from blood plasma
